The text below walks through data of patent publication US6143749A, “Heterocyclic substituted cyclopentane compounds” (Abbott Laboratories, priority 1996, dated 2000).

Structures are written as SMILES. pIC50: −log10 of the molar value. Some results are limits rather than exact numbers.

Chain of adenosine kinase (Homo sapiens, UniProt P55263) (P55263 whole entry, species assumed): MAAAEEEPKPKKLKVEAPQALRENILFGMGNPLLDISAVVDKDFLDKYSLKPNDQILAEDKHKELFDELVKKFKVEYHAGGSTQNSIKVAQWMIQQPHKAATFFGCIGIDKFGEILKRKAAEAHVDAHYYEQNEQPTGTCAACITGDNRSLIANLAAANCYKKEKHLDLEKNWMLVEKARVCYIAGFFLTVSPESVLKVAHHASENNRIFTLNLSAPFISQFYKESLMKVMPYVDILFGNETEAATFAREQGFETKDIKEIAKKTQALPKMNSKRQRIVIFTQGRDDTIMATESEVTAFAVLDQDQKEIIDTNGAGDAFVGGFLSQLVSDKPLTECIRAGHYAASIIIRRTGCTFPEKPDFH

The first experiment has as its system adenosine kinase.
Assay: not given
The note with it: literature, in words; cited from earlier work.
On to `NC[C@H]1O[C@@H](n2cnc3c(N)ncnc32)[C@H](O)[C@@H]1O` [5'-amino,5'-deoxyadenosine], for which the “reported to inhibit adenosine kinase; the most potent” value (from here on “reported to inhibit adenosine kinase”) is on record as “most potent”.

Turning to `C[C@H]1O[C@@H](n2cc(I)c3c(N)ncnc32)[C@H](O)[C@@H]1O` [5'-deoxy-5-iodotubercidin], the “reported to inhibit adenosine kinase” value was “most potent”.

Turning to `Nc1ncnc2c1c(I)cn2[C@@H]1O[C@H](CO)[C@@H](O)[C@H]1O` [5-iodotubercidin], the “reported to inhibit adenosine kinase” value is on record as “most potent”.

The next experiment addresses adenosine kinase (Homo sapiens, UniProt P55263). Briefly: inhibition of adenosine kinase activity in vitro. The note with it: Table 1, adenosine kinase. In kind it is biochemical. The source says:
The adenosine kinase to be inhibited can be located in vitro, in situ or in vivo. Where the adenosine kinase is located in vitro, adenosine kinase is contacted with the inhibitor compound, typically by adding the compound to an aqueous solution containing the enzyme, radiolabeled substrate adenosine, magnesium chloride and ATP. The enzyme can exist in intact cells or in isolated subcellular fractions containing the enzyme. The enzyme is then maintained in the presence of the inhibitor for a period of time and under suitable physiological conditions. Means for determining maintainence times are well known in the art and depend inter alia on the concentrations of enzyme and the physiological conditions. Suitable physiological conditions are those necessary to maintain adenosine kinase viability and include temperature, acidity, tonicity and the like. Inhibition of adenosine kinase can be performed, by example, according to standard procedures well known in the art (Yamada, et al, Comp. Biochem. Physiol. 1982, 71B: 367-372).
In vitro adenosine kinase activity can be measured using any of the standard procedures well known in the art. By way of example, cells containing adenosine kinase, such as IMR-32 human -neuroblastoma cells, are cultured in the presence and absence of an inhibitor. Inhibition is measured as the ability to inhibit phosphorylation of endogenous or externally applied ^14 C-adenosine by these cells. The cells can be intact or broken. The specificity of adenosine kinase inhibitory activity is determined by studying the effects of inhibitors on adenosine A1 and A2a receptor binding, adenosine deaminase activity and adenosine transport.
Numerous inhibitor compounds of the present invention were tested in vitro and found to inhibit adenosine kinase activity. The results of some representative studies are shown below in Tables 1 and 2.
By pIC50 is commonly meant the negative decadic logarithm of the IC50, by convention in mol/L. A low value points to a large IC50. For the molecule `Nc1ncnc2c1c(I)cn2[C@@H]1C[C@H](Nc2ccc(Cl)nn2)[C@@H](O)[C@H]1O`, the pIC50 is 7.70.

`Nc1ncnc2c1c(I)cn2[C@@H]1C[C@H](Nc2ncccn2)[C@@H](O)[C@H]1O` gave a pIC50 of 7.42.

In turn, `O[C@@H]1[C@H](O)[C@@H](Nc2ccc(Br)cc2)C[C@H]1n1cc(I)c2c(Cl)ncnc21` gave a pIC50 of 7.82.

Molecule `CC(C)(C)OC(=O)[C@H](CC(N)=O)N[C@H]1C[C@@H](n2cc(I)c3c(Cl)ncnc32)[C@H](O)[C@@H]1O` showed a pIC50 of 6.70.

`NC(=O)C[C@H](N[C@H]1C[C@@H](n2cc(I)c3c(Cl)ncnc32)[C@H](O)[C@@H]1O)C(=O)O` showed a pIC50 of 7.32.

For `CC(C)(C)OC(=O)[C@H](CC(N)=O)N([C@H]1C[C@@H](n2cc(I)c3c(Cl)ncnc32)[C@H](O)[C@@H]1O)S(=O)(=O)c1ccc([N+](=O)[O-])cc1[N+](=O)[O-]`, the pIC50 is 6.46.

For `N[C@@H]1C=C[C@H](n2cc(I)c3c(Cl)ncnc32)C1`, the pIC50 is 5.52.

`N[C@@H]1CC[C@H](n2cc(I)c3c(Cl)ncnc32)C1` gave a pIC50 of 6.48.

With `O=C(O)CN[C@H]1C[C@@H](n2cc(I)c3c(Cl)ncnc32)[C@H](O)[C@@H]1O` [drawing 14: R4=HO2 CCH2 NH; R5=Cl; R6=I, N7-((1'R,2'S,3'R,4'S)-2',3'-dihydroxy-4'-(carboxymethylene)amino-cyclopentyl)-4-chloro-5-iodo-pyrrolopyrimidine], the pIC50 is 6.82.

In the case of `N[C@H]1C[C@@H](n2cc(C#Cc3ccccc3)c3c(C#Cc4ccccc4)ncnc32)[C@H](O)[C@@H]1O` [drawing 14: R4=NH2; R5=C≡C--Ph; R6=C≡C--Ph], the pIC50 is 8.40.

The molecule `N[C@H]1C[C@@H](n2cc(-c3ccccc3)c3c(Nc4ccccc4)ncnc32)[C@H](O)[C@@H]1O` [drawing 14: R4=NH2; R5=NHPh; R6=Ph] gave a pIC50 of 7.46.

As to `CC(C)(C)OC(=O)CN[C@H]1C[C@@H](n2cc(I)c3c(Cl)ncnc32)[C@H](O)[C@@H]1O` [drawing 14: R4=t-buOCOCH2 NH; R5=Cl; R6=I, N7-((1'R,2'S,3'R,4'S)-2',3'-dihydroxy-4'-(t-butoxycarbonyl-methylene)amino-cyclopentyl)-4-chloro-5-iodo-pyrrolopyrimidine], the pIC50 was 7.55.

The experiment is the same for the next values; noted with them: Table 2, adenosine kinase.
`O=C(Cc1ccccn1)N[C@H]1C[C@@H](n2cc(I)c3c(Cl)ncnc32)[C@H](O)[C@@H]1O` gave a negative-log IC50 (pIC50) of 6.76.

In turn, `O=C(Cc1cccnc1)N[C@H]1C[C@@H](n2cc(I)c3c(Cl)ncnc32)[C@H](O)[C@@H]1O` gave a pIC50 of 6.60.

Molecule `CC(=O)O[C@@H]1[C@H](OC(C)=O)[C@@H](OC(C)=O)C[C@H]1n1cc(Cl)c2c(Cl)ncnc21` [drawing 24: R5=Cl; R6=Cl, N7-((1'R,2'S,3'R,4'S)-2',3',4'-triacetoxycyclopentyl)-4,5-dichloro-pyrrolopyrimidine] had a pIC50 of under 5.00.

With `CC(=O)O[C@@H]1[C@H](OC(C)=O)[C@@H](OC(C)=O)C[C@H]1n1cc(I)c2c(Cl)ncnc21` [drawing 24: R5=Cl; R6=I, N7-((1'R,2'S,3'R,4'S)-2',3',4'-triacetoxycyclopentyl)-4-chloro-5-iodo-pyrrolopyrimidine], the pIC50 is under 4.00.

The molecule `CN(C)CC(=O)N[C@H]1C[C@@H](n2cc(I)c3c(Cl)ncnc32)[C@H](O)[C@@H]1O` [drawing 27: R=(CH3)2 NCH2 CO, N7-((1'R,2'S,3'R,4'S)-2',3'-dihydroxy-4'-(dimethylaminoacetyl)amino-cyclopentyl)-4-chloro-5-iodo-pyrrolopyrimidine] gave a pIC50 of 6.32.

`COC(=O)N[C@H]1C[C@@H](n2cc(I)c3c(Cl)ncnc32)[C@H](O)[C@@H]1O` [drawing 27: R=CH3 OCO, N7-((1'R,2'S,3'R,4'S)-2',3'-dihydroxy-4'-(methoxycarbonyl)amino-cyclopentyl)-4-chloro-5-iodo-pyrrolo-pyrimidine] gave a pIC50 of 6.52.

As for `NCC(=O)N[C@H]1C[C@@H](n2cc(I)c3c(Cl)ncnc32)[C@H](O)[C@@H]1O` [drawing 27: R=NH2 CH2 CO, N7-((1'R,2'S,3'R,4'S)-2',3'-dihydroxy-4'-(amino-acetyl)amino-cyclopentyl)-4-chloro-5-iodo-pyrrolopyrimidine], the pIC50 was 7.49.
